These results are taken from US20130295669A1, “METHOD FOR CONTROLLING BINDING OF CELLS TO A SUBSTRATE” (LONZA COLOGNE GMBH, priority 2010, published 2013).

The test system of experiment [1] is mesenchymal stem cells from bone marrow (BM-MSCs). As to the kind of experiment: Cell aggregation of BM-MSCs in suspension (deep-well) culture. The class given is cell-based. The following applies: for cell clustering: suspension deep-well. As for the experimental part: (§1) Cell aggregation (A), cell survival (B) and apoptosis (C) were assayed in presence or absence of different Blebbistatin concentrations up to seven days. ROCK inhibitor (Y-27532) was used as a positive control. Cells were added to deep-wells not supporting adherent growth. Different concentrations of Blebbistatin and Y-27632 were tested in suspension (deep-well, 130 RPM) and adhesion (six-well) culture on BM-MSCs (media containing 10% FBS).
(§2) B: Live cells were quantified by FACS using dye-exclusion assay (propidium iodide). […] The survival-enhancing effect of Blebbistatin appeared concentration dependent peaking at 10 μM and decreasing at both higher and lower concentrations of Blebbistatin. C: Apoptotic cells were quantified by FACS using Annexin V-assay (propidium iodide).

The subject of experiment [2] is human embryonal stem cells (hEST). As to the kind of experiment: Cryopreservation recovery of human embryonal stem cells. The class given is cell-based. An excerpt: Usually only cell clusters can be cryopreserved, but not single ES cells.
Moreover, adding Blebbistatin before freezing is beneficial for cryopreserving single hESCs.

Experiment [3] relates to human Embryonic Stem Cells (hESCs). As to the kind of experiment: Post-split attachment of hESCs on Matrigel-coated dishes in X-VIVO medium. Format: cell-based. The method, then: The cells were cultured in defined X-VIVO medium containing no serum or animal-derived components on culture dishes coated with Matrigel®. A: No treatment with inhibitor (control), B: Transient treatment with 10 μM Blebbistatin (left micrograph: 4-fold magnification, right micrograph: 10-fold magnification), C: Culture 1 day after withdrawal of Blebbistatin. The post-split attachment of hESCs in X-VIVO has been low (A: 5-15%). When the culture was split (EDTA passage), the medium was supplemented with 10 μM of Blebbistatin. This increased the attachment of hESCs dramatically (B: 80-95%) compared to the post-split attachment of Blebbistatin-free hESC culture in X-VIVO. In fact, even the individualized hESCs attached very well. The media of the culture was replaced after 24 h with Blebbistatin-free X-VIVO to see how the cells stay attached and proliferate without Blebbistatin.

For experiment [4], the system named is stem cells from cord blood (CB-USSC). Nature of the experiment: CB-USSC attachment and proliferation on repellent Teflon foil. Format: cell-based. The settings on record: 10 μM. The method, then: USSCs were cultured with 10 μM Bb for 4 days on repellent Teflon® foil and the cells attached to the foil were counted on day 4. Bars represent the number of cells per well. Control cultures: CB-USSCs in DMSO or PBS without inhibitor. […] Thus, CB-USSCs attach and proliferate on Teflon® foil.
USSCs were cultured with 10 μM Bb on repellent Teflon® foil until confluency was reached, the cells attached to the foil were counted on day 6 after cell seeding. Bars represent the number of cells per well. Control cultures: CB-USSCs in DMSO or PBS without inhibitor.
USSCs were cultured with 10 μM Bb on repellent Teflon® foil dish and counted on day 4 after cell seeding. Bars represent the number of cells per well. Control cultures: CB-USSCs in DMSO or PBS without inhibitor. […] USSC attachment and proliferation on Teflon® foil in serum-reduced (EGM2) media is enhanced by myosin inhibition.
USSCs were cultured with 10 μM Bb on repellent Teflon® foil dish and counted on day 4 after cell seeding. Bars represent the number of cells per well. Control cultures: CB-USSCs in DMSO or PBS without inhibitor.

Experiment [5] concerns mesenchymal stem cells from bone marrow (BM-MSC). Nature of the experiment: Dislocation of BM-MSCs with Trypsin/EDTA after pretreatment, and reseeding. Format: cell-based. The settings on record: for effect against cell dislocation and clumping: 3 min Trypsin/EDTA; for cell proliferation (yield and viability) after reseeding: pretreatment before dislocation, 7 days in drug-free medium, 5000 cells/cm^2. As for the experimental part:
Subconfluent BM-MSCs were subjected to 4 h pretreatment (10 μM Blebbistatin or 10 μM Y-27632 vs control) and subsequent incubation for 3 min. with Trypsin/EDTA at 37° C. Cell counts were determined after dislocation of the cells from the surface of tissue culture flasks without specific coating (A). […] Dislocated cells are devoid of aggregates in drug-treated condition. […] Cells were reseeded (all conditions at same density: 5000 cells/cm^2) and cultured for additional 7 days in drug-free medium. After 7 days cell counts (B) and viability (C) were determined. […] An increase in cell proliferation (yield and viability) by Blebbistatin and less for Y-27632 treatment before dislocation in the subsequent drug-free passage (day 7) was also observed.

Another experiment concerns BM-MSCs. Nature of the experiment: Attachment of BM-MSCs to hydrophobic side of Lumox-biofoil bag. The settings on record: 10 μM, 48 h treatment. The class given is cell-based. As for the experimental part:
Colony and attached cells observed after 48 h treatment with <0.1% DMSO are shown. No significant attachment of cells could be observed.
Colony and attached cells observed after 48 h treatment with 10 μM Blebbistatin are shown. […] Thus, if compared to FIG. 6 (control), treatment with Blebbistatin results in an increased affinity of BM-MSCs to this surface.

Experiment [6] concerns human pluripotent stem cells. The following applies: clonal density and suspension conditions; cited from earlier work.
Experiment [7] deals with stem cells from cord blood (CB-USSCs). As to the kind of experiment: CB-USSCs on PTFE vessel material. The class given is cell-based. The following applies: 10 μM, 3 days on PTFE-vessel material. As for the experimental part: USSCs were cultured with 10 μM Bb for 3 days on repellent PTFE-vessel material compared to control cultures.
The subject of experiment [8] is mesenchymal stem cells from bone marrow (BM-MSC). As to the kind of experiment: BM-MSCs seeded on microcarriers for suspension culture. The class given is cell-based. As for the experimental part:
BM-MSCs were seeded on microcarriers for suspension culture in presence or absence of 10 μM Blebbistatin and allowed to proliferate for 6 days. After 24 h incubation without agitation the culture was sampled to determine cell count, Glucose consumption and cell seeding. After 5 additional days of incubation with agitation Glucose consumption (A), Lactate production (B), cell count (C) and cell seeding on carriers (DAPI-stain of cells on carrier, FIG. 11) were determined again. […] Accordingly, Blebbistatin has a protective effect on the cells resulting in enhanced proliferation after 6 days growth on microcarriers.

For experiment [9] the test system is unchanged. Nature of the experiment: BM-MSC attachment and proliferation on repellent Teflon foil. Format: cell-based. The settings on record: 10 μM. As for the experimental part:
MSCs were cultured with 10 μM Bb for 4 days on repellent Teflon® foil and the cells attached to the foil were counted on day 4. Bars represent the number of cells per well. Control cultures: BM-MSCs in DMSO or PBS without inhibitor. […] Thus, BM-MSCs attach and proliferate on Teflon® foil.
MSCs were cultured with 10 μM Bb on repellent Teflon® foil until confluency was reached, the cells attached to the foil were counted on day 6 after cell seeding. Bars represent the number of cells per well. Control cultures: BM-MSCs in DMSO or PBS without inhibitor.

Experiment [10] deals with mesenchymal stem cells from bone marrow (BM-MSCs). As to the kind of experiment: Apoptosis by Annexin V staining and FACS. Format: cell-based. The method, then: as §1, §2
The subject of the next experiment is BM-MSC cultures. Nature of the experiment: Cell cycle profiles (G1/G0 and G2) by propidium iodide FACS with continuous BrdU incorporation. Format: cell-based. The following applies: suspension/shaking culture in deep-wells, up to 3 days. An excerpt: BM-MSC cultures were allowed to incorporate BrdU continuously and were sampled at different points of time (up to 3 days). Most cells are in G1/G0 phase (very dense culture), but there are also some G2-cells present. Absence of >4N cells (no multinucleated cells detected).
BM-MSC cultures were allowed to incorporate BrdU continuously and were sampled at different points of time (up to 3 days). Most cells are in G1/G0 phase (very dense culture), but there are also G2-cells present. Absence of >4N cells (no multinucleated cells detected). During continuous treatment in adherent T-flasks culture (G2/M) slight slowing down of the cell cycle was observed.

The test system of experiment [11] is mesenchymal stem cells from bone marrow (BM-MSCs). The class given is cell-based. The method, then: as §1, with “FBS). […] B: Live cells were quantified by FACS using dye-exclusion assay (propidium iodide). […] The survival-enhancing effect of Blebbistatin appeared concentration dependent peaking at 10 μM and decreasing at both higher and lower concentrations of Blebbistatin. C: Apoptotic cells were quantified by FACS using Annexin V-assay (propidium iodide).” for “FBS).”

Where [12] appears, read: deep well culture, up to seven days, overall statement.

SMILES strings stand for the structures.

In the case of `Cc1ccc2c(c1)C(=O)C1(O)CCN(c3ccccc3)C1=N2` (stereo not drawn) [Blebbistatin], the cell clustering result in experiment [1] (10 μM) is reported as “prevents cell clustering”; in [1] (less than 10 μM), “formed a single aggregate”. Further, the cell aggregation result in experiment [1] (setting [12]) is given as “prevents or at least greatly reduces cell aggregation”. In experiment [2], the “cryopreservation recovery of single hESCs” value is given as “increases the cryopreservation recovery of single hESCs to the comparable level of the recovery of hESC clusters”. In addition, the “effect of adding before freezing on cryopreserving single hESCs” value in [2] (added before freezing) was “beneficial”. Also, the “post-split attachment of hESCs” value in experiment [3] (10 μM, EDTA passage, X-VIVO medium, Matrigel) is given as 80-95%. Moreover, the “attachment and proliferation after withdrawal of Blebbistatin” value in experiment [3] (medium replaced after 24 h, 1 day after withdrawal) was “no significant changes could be observed”. In addition, the “cell yield (cells attached to foil per well)” value was “highly significant increase in cell yield” in experiment [4] (day 4), “significant increase in cell yield” in [4] (day 6 after cell seeding), “significant increase in cell yield” in [9] (day 4) and “No differences in cell yield” in experiment [9] (day 6 after cell seeding). For the same compound, the “proliferation (cells per well)” value in [4] (day 4, low serum EGM2+Dex-media (3% serum)) is given as “significantly enhanced proliferation”. The “cell yield (cells per well)” value in experiment [4] (day 4, serum-free MSCGM-CD medium) is recorded as “No apparent increase in cell yield”. In addition, the “confluency on Teflon foil” value was “form confluent layers” in experiment [4] (day 6) and “do not form a completely confluent layer” in experiment [9] (day 6). For the same compound, in experiment [5] (10 μM, 4 h pretreatment), the “effect against cell dislocation and clumping” value is “protective effects against cell dislocation and clumping”. The “cell counts dislocated from tissue culture flasks” value in experiment [5] (10 μM, 4 h pretreatment, 3 min Trypsin/EDTA at 37° C.) is reported as “Fewer cells are dislocated”. In addition, the “cell proliferation (yield and viability) after reseeding” value in experiment [5] was “enhanced proliferation and viability”. For the same compound, in the experiment on BM-MSCs, the “cells attached to hydrophobic surface” value is given as “A significant number of cells is attached”. Also, the “survival rate of human pluripotent stem cells” value in experiment [6] is “increases the survival rate”. In [7], the “cell spreading and aggregate formation” value is given as “Markedly enhanced cell spreading but no aggregate formation”. The “cell seeding on microcarriers” value in [8] (10 μM, after 24 h without agitation) is on record as “markedly increased”. Besides, in experiment [8] (10 μM, after 6 days), the Glucose consumption entry was “no effect”. In addition, the Lactate production result in experiment [8] (10 μM, after 6 days) is listed as “no effect”. The cell number entry in [8] (10 μM, after 6 days on microcarriers) is given as “significantly increased”. Also, the “cells adhering to microcarriers (DAPI-stain micrographs)” value in experiment [8] (after 6 days of incubation) is on record as “much more cells adhere to the microcarriers”. For the same compound, the “concentration of greatest anti-apoptotic effect” value in [10] is 10 µM. In [10] (10 μM, versus DMSO, PBS controls), the “apoptotic cells (Annexin V-assay)” value is “protected against apoptosis”. For the same compound, the anti-apoptotic effect entry in experiment [10] (below 5 μM) is given as “merely a limited effect”. Besides, the apoptosis entry in experiment [10] (setting [12]) was “decreases apoptosis”. Further, the “cell death in suspension culture (AnnexinV staining)” value in experiment [10] (suspension/shaking conditions) is recorded as “eliminates cell death in suspension culture”. The “anti-apoptotic effect relative to Y-27632” value in experiment [10] (various inhibitor concentrations) is given as “comparable or stronger than that of Y-27632”. Further, the “effect on cell cycle” value in the experiment on BM-MSC cultures is “no significant effect”. For the same compound, the “optimum concentration for eliminating cell death” value in experiment [11] was determined as 10 µM. Also, the cell survival result in experiment [11] (setting [12]) is “enables cell survival”. Moreover, the “cell death rates (propidium iodide, FACS)” value in experiment [11] (especially at 10-50 μM, adhesive/static or suspension/shaking) is “significantly eliminates cell death”. The “concentration at which survival-enhancing effect peaks” value in experiment [11] (suspension, decreasing at higher and lower concentrations) came to 10 µM.

As to `C[C@@H](N)[C@H]1CC[C@H](C(=O)Nc2ccncc2)CC1` [Y-27632], in experiment [5] (10 μM, 4 h pretreatment), the “effect against cell dislocation and clumping” value is “protective effects against cell dislocation and clumping”. Moreover, the “cell proliferation (yield and viability) after reseeding” value in experiment [5] is on record as “less”.
